Data on one molecule can be found in publication PMC2362731, “Phase I study of Carzelesin (U-80,244) given (4-weekly) by intravenous bolus schedule” (British Journal of Cancer, 1999).

Series [1] deals with granulocytes (ANC), white blood cells (WBC), platelets. The series can be described thus: Pharmacokinetic-pharmacodynamic relationship of bone marrow toxicity (%decr vs AUC). It counts as in vivo. An excerpt:
Carzelesin (U-80,244, Figure 1A) is a cyclopropylpyrroloindole (CPI) prodrug analogue of CC-1065. […] CPI drugs are a class of compounds with unique DNA interactive properties. These agents fit into the minor groove region of DNA, and the CPI function in the molecule mediates a covalent binding to the N3 position of adenine in A-T rich regions, thus forming DNA adducts in a sequence selective fashion (Hurley et al, 1984; Reynolds et al, 1985). Three new CPIs have now been developed. […] Bizelesin differs from the classical CPI drugs in that it contains two chloromethyl functions, which are both converted (via intramolecular rearrangements) to the CPI alkyl- ating species that interact with DNA. Consequently, this agent is capable of forming DNA interstrand cross-links (Lee et al, 1991). […] Therefore, efforts were directed to modu- late the alkylation rate by the preparation of CPI prodrugs that would require chemical or enzymatic conversion. The activation of Carzelesin is a two-step reaction with hydrolysis of the phenyl- urethane substituent to form the intermediate compound U-76,073, followed by ring closure to form the active product U-76,074 (Figure 1B). […] This higher efficacy may be related to the pharmacologic features of the compound. […] Phase I study of Carzelesin (U-80,244) given (4-weekly) by intravenous bolus schedule A Awada1, CJA Punt2, MJ Piccart1, O Van Tellingen3, L Van Manen2, J Kerger1, Y Groot4, J Wanders4, J Verweij5 and DJTh Wagener2 1Institut Jules Bordet, Bd de Waterloo 125, 1000 Brussels, Belgium; 2University Hospital, Geert Grooteplein 8, Box 9101, 6500 HB Nijmegen, The Netherlands; 3The Netherlands Cancer Institute (Antoni van Leeuwenhoek Huis), Plesmanlaan 121, 1066 CX Amsterdam, The Netherlands; 4European Organization for Research and Treatment of Cancer - New Drug Development Office, PO Box 7057, Amsterdam, The Netherlands; 5Rotterdam Cancer Institute, Groene Hilledijk 301, 3075 EA Rotterdam, The Netherlands; on behalf of the EORTC Early Clinical Studies Group and EORTC NDDO Summary Carzelesin is a cyclopropylpyrroloindole analogue which acts as a DNA-sequence-specific alkylating agent. In this phase I study, Carzelesin was given as a 4-weekly 10 min IV infusion to 51 patients with advanced solid tumours. Patients received a median of two courses (range 1-5) at one of nine dose levels: […]. According to NCI-CTC criteria, non- haematological toxicities (grade 1/2) included fever, nausea and vomiting, mucositis and anorexia, none of which was clearly dose related. […] The concentration of U-76,074 (active metabolite) extended above the lower limit of quantitation (1 ng ml-1) for short periods of time and only at the higher dose levels. […]

The next series relates to solid tumours. The series can be described thus: Antitumour activity (WHO response criteria). It counts as in vivo, human. To be noted: 51 patients, eight not evaluable. An excerpt:
Carzelesin (U-80,244, Figure 1A) is a cyclopropylpyrroloindole (CPI) prodrug analogue of CC-1065. […] CPI drugs are a class of compounds with unique DNA interactive properties. These agents fit into the minor groove region of DNA, and the CPI function in the molecule mediates a covalent binding to the N3 position of adenine in A-T rich regions, thus forming DNA adducts in a sequence selective fashion (Hurley et al, 1984; Reynolds et al, 1985). Three new CPIs have now been developed. […] Bizelesin differs from the classical CPI drugs in that it contains two chloromethyl functions, which are both converted (via intramolecular rearrangements) to the CPI alkyl- ating species that interact with DNA. Consequently, this agent is capable of forming DNA interstrand cross-links (Lee et al, 1991). […] Therefore, efforts were directed to modu- late the alkylation rate by the preparation of CPI prodrugs that would require chemical or enzymatic conversion. The activation of Carzelesin is a two-step reaction with hydrolysis of the phenyl- urethane substituent to form the intermediate compound U-76,073, followed by ring closure to form the active product U-76,074 (Figure 1B). […] The concentration of U-76,074 (active metabolite) extended above the lower limit of quantitation (1 ng ml-1) for short periods of time and only at the higher dose levels. […]

The subject of series [2] is murine and human tumour xenografts. The conditions noted are these: ref Li et al, 1992, cited from earlier work.
Series [3] relates to bone marrow, kidney, liver and spleen. Details: method as in EORTC-NDDO, 1992. The conditions noted are these: ref EORTC-NDDO, 1992; cited from earlier work.
The next series relates to mouse. The conditions noted are these: equivalent of mouse LD10; ref EORTC-NDDO, 1992; cited from earlier work.

On to `CCN(CC)c1ccc2cc(C(=O)Nc3ccc4[nH]c(C(=O)N5C[C@@H](CCl)c6c5cc(OC(=O)Nc5ccccc5)c5[nH]cc(C)c65)cc4c3)oc2c1` [Carzelesin], for which, in series [1] (human, in vivo), the “AUC in other patients with marked toxicity” value is recorded as “less than 20 ng ml.h-1”. The “highest AUC observed in this series” value in series [1] (patient at 300 with only very modest toxicity) stood at 43.2 ng·mL/h. In addition, in series [1] (second course, exception patient treated at 300), the “%decr in ANC” value stood at 82%. Further, in the series on solid tumours, the “patients with progressive disease as best overall response” value is given as “Thirty-four patients” and the “patients with stable disease as best overall response” value is reported as “nine patients”. The “efficacy in a broad panel of murine and human tumour xenografts” value in series [2] (compared with adozelesin) is listed as “more efficacious”. In addition, the “efficacy against Lewis lung carcinoma, B16 melanoma, colon 38 carcinoma, colon CX1 adenocarcinoma, lung LX-1 tumour, ovarian 2780 and prostatic DU-145 carcinoma” value in series [2] (Houghton et al, 1995) is given as “highly effective”. Also, in series [3], the “organs in which toxicity occurred in preclinical studies” value was “bone marrow, kidney, liver and spleen”. For the same molecule, the MELD10 in the series with mouse is 840 g m-2.
